In DBAASP one finds MIC data, which are given here for six compounds.

Values after ≈ are worked out from the molar mass of the structure shown. Some results are limits rather than exact numbers.

Some test systems named below: Acinetobacter baumannii; Staphylococcus aureus; Bacillus subtilis 168 HT; Escherichia coli MG1655; Yersinia ruckeri MT252.
Common to all, as to assay: ≥ marks a high value that may be exact or a test limit, other limits are often not marked, values filed in µg/mL are converted to µM
The subject of experiment [1] is Escherichia coli ATCC 25922.
Experiment [2] relates to Listeria monocytogenes KCTC 19111.
The subject of experiment [3] is Pseudomonas aeruginosa ATCC 15692.
For experiment [4], the system named is Salmonella typhimurium KCTC 1926.
The test system of experiment [5] is Staphylococcus aureus ATCC 25923.
Experiment [6] has as its system Staphylococcus epidermidis KCTC 1917.
The test system of experiment [7] is Pseudomonas aeruginosa ATCC 10662.
Experiment [8] has as its system Staphylococcus epidermidis ATCC 1435.
Experiment [9] relates to Bacillus subtilis ATCC 6633.
Experiment [10] relates to Salmonella enterica subsp. enterica serovar Enteritidis BNCC 103134.
Experiment [11] has as its system Candida albicans ATCC 10231.
Experiment [12] relates to Cryptococcus neoformans ATCC 32045.
In experiment [13] the test system is Escherichia coli ATCC 2592.
In experiment [14] the test system is Pseudomonas aeruginosa ATCC 10145.
Experiment [15] relates to Staphylococcus aureus ATCC 33591.
Experiment [16] deals with Aeromonas salmonicida MT004.
The subject of experiment [17] is Aeromonas salmonicida MT423.
Experiment [18] deals with Escherichia coli NCIMB 12260.
Experiment [19] concerns Lactococcus garvieae MT2055.
The test system of experiment [20] is Lactococcus garvieae MT2291.
For experiment [21], the system named is Vibrio anguillarum MT1741.
Experiment [22] has as its system Vibrio anguillarum MT1742.

As a reminder, the MIC is the least concentration at which growth counts as inhibited. Read a low MIC as greater potency. With `NCCCC[C@H](NC(=O)[C@H](Cc1ccc(O)cc1)NC(=O)[C@H](Cc1c[nH]c2ccccc12)NC(=O)[C@H](CCCCN)NC(=O)[C@H](CCCCN)NC(=O)[C@H](Cc1ccc(O)cc1)NC(=O)[C@H](Cc1c[nH]c2ccccc12)NC(=O)[C@H](CCCCN)NC(=O)[C@H](CCCCN)NC(=O)[C@H](Cc1ccc(O)cc1)NC(=O)[C@H](Cc1c[nH]c2ccccc12)NC(=O)[C@H](CCCCN)NC(=O)[C@H](CCCCN)NC(=O)[C@H](Cc1ccc(O)cc1)NC(=O)[C@H](Cc1c[nH]c2ccccc12)NC(=O)[C@@H](N)CCCCN)C(N)=O` [KWYKKWYKKWYKKWYK], the MIC worked out at 1 µM (≈ 2.44 µg/mL) in experiment [1]; 1 µM (≈ 2.44 µg/mL) in experiment [2]; 2 µM (≈ 4.88 µg/mL) in [3]; 2 µM (≈ 4.88 µg/mL) in experiment [4]; 2 µM (≈ 4.88 µg/mL) in experiment [5]; 1 µM (≈ 2.44 µg/mL) in experiment [6].

In the case of `CC[C@H](C)[C@H](NC(=O)[C@H](Cc1cnc[nH]1)NC(=O)[C@H](Cc1cnc[nH]1)NC(=O)[C@H](Cc1ccccc1)NC(=O)[C@@H](N)Cc1ccccc1)C(=O)N[C@@H](Cc1ccccc1)C(=O)N[C@@H](CCCN=C(N)N)C(=O)NCC(=O)N[C@@H](CCCCN)C(=O)N[C@H](C(=O)N[C@@H](Cc1cnc[nH]1)C(=O)N[C@H](C(=O)NCC(=O)N[C@@H](CCCCN)C(=O)N[C@H](C(=O)N[C@H](C(=O)N[C@@H](Cc1cnc[nH]1)C(=O)N[C@@H](CCCN=C(N)N)C(=O)N[C@@H](CC(C)C)C(=O)N[C@H](C(=O)N[C@H](C(=O)NCC(N)=O)[C@@H](C)O)C(C)C)[C@@H](C)CC)[C@@H](C)O)C(C)C)C(C)C` [FFHHIFRGKVHVGKTIHRLVTG], the minimum inhibitory concentration (MIC) against Acinetobacter baumannii was 1.2 µM (≈ 3.1 µg/mL); in [1], 1.2 µM (≈ 3.1 µg/mL); in experiment [7] it was 9.66 µM (≈ 25 µg/mL); in [5], 1.2 µM (≈ 3.1 µg/mL); against Staphylococcus aureus it was 2.4 µM (≈ 6.2 µg/mL); in experiment [8] it was 1.2 µM (≈ 3.1 µg/mL).

With `C[C@@H](O)[C@H](NC(=O)[C@H](Cc1ccccc1)NC(=O)[C@H](CO)NC(=O)[C@@H](NC(=O)[C@@H]1CCCN1C(=O)[C@@H](N)Cc1c[nH]c2ccccc12)[C@@H](C)O)C(=O)O` [WPTSFT], the MIC in [9] is at least 300 µM; in experiment [1], 200 µM (≈ 148 µg/mL); in experiment [10], at least 350 µM; in [5], 300 µM (≈ 221 µg/mL).

As for `CC[C@H](C)[C@H](N)C(=O)N[C@@H](CCCCN)C(=O)N[C@H](C(=O)N[C@H](C(=O)N[C@@H](C)C(=O)N1CCC[C@H]1C(=O)N[C@@H](CCCCN)C(=O)N[C@@H](CCCCN)C(=O)N[C@H](C(=O)N[C@@H](CCCCN)C(=O)N[C@@H](CC(C)C)C(=O)O)[C@@H](C)CC)C(C)C)[C@@H](C)CC` [IKIVAPKKIKL], the minimum inhibitory concentration (MIC) against Bacillus subtilis 168 HT and in the experiment with Escherichia coli MG1655 was at least 102 µM in each case.

Consider `C[C@H](NC(=O)[C@H](Cc1ccccc1)NC(=O)[C@H](CCCCN)NC(=O)[C@H](CCCCN)NC(=O)[C@H](C)NC(=O)[C@H](Cc1ccccc1)NC(=O)[C@H](CCCCN)NC(=O)[C@H](CCCCN)NC(=O)[C@H](C)NC(=O)[C@H](Cc1ccccc1)NC(=O)[C@H](CCCCN)NC(=O)[C@H](CCCCN)NC(=O)[C@H](C)NC(=O)[C@H](Cc1ccccc1)NC(=O)[C@H](CCCCN)NC(=O)[C@H](CCCCN)NC(=O)[C@H](C)NC(=O)[C@H](Cc1ccccc1)NC(=O)[C@H](CCCCN)NC(=O)[C@H](CCCCN)NC(=O)[C@H](C)NC(=O)[C@H](Cc1ccccc1)NC(=O)[C@H](CCCCN)NC(=O)[C@H](CCCCN)NC(=O)[C@H](C)NC(=O)[C@H](Cc1ccccc1)NC(=O)[C@@H](N)CCCCN)C(=O)N[C@@H](CCCCN)C(=O)O` [KFAKKFAKKFAKKFAKKFAKKFAKKFAK], for which the MIC in [11] was 33.5 µM (≈ 112 µg/mL); in experiment [12], 13.3 µM (≈ 44.5 µg/mL); in experiment [13] it was 13.3 µM (≈ 44.5 µg/mL); in [14], 4.79 µM (≈ 16 µg/mL); in experiment [15], at least 74.8 µM.

Turning to `CC[C@H](C)[C@H](NC(=O)CNC(=O)[C@H](CCCCN)NC(=O)[C@@H](NC(=O)[C@@H](NC(=O)[C@H](Cc1cnc[nH]1)NC(=O)[C@H](Cc1cnc[nH]1)NC(=O)[C@@H](NC(=O)[C@@H](N)Cc1ccccc1)[C@@H](C)CC)[C@@H](C)CC)[C@@H](C)CC)C(=O)N[C@@H](Cc1ccccc1)C(=O)N[C@@H](Cc1cnc[nH]1)C(=O)N[C@H](C(=O)NCC(=O)N[C@@H](CCCCN)C(=O)N[C@@H](CCSC)C(=O)N[C@H](C(=O)N[C@@H](Cc1cnc[nH]1)C(=O)N[C@@H](CO)C(=O)N[C@@H](C)C(=O)N[C@H](C(=O)N[C@@H](CC(N)=O)C(=O)N[C@@H](CCCN=C(N)N)C(=O)N[C@@H](CCCN=C(N)N)C(=O)N[C@@H](CCCN=C(N)N)C(=O)N[C@@H](Cc1cnc[nH]1)C(=O)O)[C@@H](C)CC)[C@@H](C)CC)[C@@H](C)CC` [FIHHIIKGIFHIGKMIHSAINRRRH], the minimum inhibitory concentration (MIC) in [16], in experiment [17], in experiment [18], in [19], in [20] and in experiment [21] was 0.528 µM (≈ 1.6 µg/mL) throughout. Further, the MIC (in experiment [22]; against Yersinia ruckeri MT252) was 0.528 µM (≈ 1.6 µg/mL) in each case.
